Earlier results, collected in patent US20220287355A1, “ORAL PRODUCTS WITH SELF-EMULSIFYING SYSTEM” (NICOVENTURES TRADING LIMITED, priority 2021, published 2022).

How the values were obtained:
[1] = not given; remark: listed apart in the source

C=C(C)[C@@H]1CCC(C)=C[C@H]1c1c(O)cc(CCCCC)cc1O [CBD, cannabidiol]
solubility in an aqueous environment (e.g., saliva): insoluble
logP value [1]: about 6.5
